Results as given in the supplement of paper PMC4862054.

Legend:
Conditions in all cases: incubation time: 72 h
HDQ-P1 [1] = assay: normalised response (% of control), CellTiter-Glo; higher = more viable cells (100 = DMSO, 0 = benzethonium chloride kill control)
Description: (§1)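 DSRT, 72 h incubation, CellTox Green / CellTiter-Glo readout. Signal is normalised to DMSO and benzethonium chloride controls. Value is the normalised response at the highest dose.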

MDA-MB-468 [2] = assay: as above
Description: as §1

MCF-10A [3] = assay: as above
Description: as §1

HCC1143 [4] = assay: as above
Description: as §1

HCC1937 [5] = assay: as above
Description: as §1

MDA-MB-453 [6] = assay: as above
Description: as §1

BT-549 [7] = assay: as above
Description: as §1

BT-474 [8] = assay: as above
Description: as §1

MDA-MB-231 [9] = assay: as above
Description: as §1

CAL-85-1 [10] = assay: as above
Description: as §1

MFM-223 [11] = assay: as above
Description: as §1

SK-BR-3 = assay: as above
Description: as §1

CAL-120 [12] = assay: as above
Description: as §1

CAL-51 [13] = assay: as above
Description: as §1

DU-4475 [14] = assay: as above
Description: as §1

HCC1599 [15] = assay: as above
Description: as §1

MDA-MB-436 [16] = assay: as above
Description: as §1

Hs578T [17] = assay: as above
Description: as §1

CAL-148 [18] = assay: as above
Description: as §1

HDQ-P1 [19] = assay: normalised response (% of control), CellTox Green; higher = less cell death (100 = DMSO, 0 = benzethonium chloride kill control)
In short: (§2)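 Plates were normalised with 0.1 % DMSO as 100 and a positive kill control as 0. Breast cancer cell lines in 20 µl suspension had been seeded into 384-well plates with compound at 5 concentrations in 10-fold steps over a compound-specific 10,000-fold range, incubated 72 h, and read for CellTox Green fluorescence (485/520 nm) followed by CellTiter-Glo luminescence. Each value is the normalised signal at a single concentration.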

MDA-MB-468 [20] = assay: as above
In short: as §2

MCF-10A [21] = assay: as above
In short: as §2

HCC1143 [22] = assay: as above
In short: as §2

HCC1937 [23] = assay: as above
In short: as §2

MDA-MB-453 [24] = assay: as above
In short: as §2

BT-549 [25] = assay: as above
In short: as §2

BT-474 [26] = assay: as above
In short: as §2

MDA-MB-231 [27] = assay: as above
In short: as §2

CAL-85-1 [28] = assay: as above
In short: as §2

MFM-223 [29] = assay: as above
In short: as §2

CAL-120 [30] = assay: as above
In short: as §2

CAL-51 [31] = assay: as above
In short: as §2

DU-4475 [32] = assay: as above
In short: as §2

HCC1599 [33] = assay: as above
In short: as §2

MDA-MB-436 [34] = assay: as above
In short: as §2

Hs578T [35] = assay: as above
In short: as §2

CAL-148 [36] = assay: as above
In short: as §2

| Compound | normalised response (HDQ-P1 [1]) [%] | normalised response (MDA-MB-468 [2]) [%] | normalised response (MCF-10A [3]) [%] | normalised response (HCC1143 [4]) [%] | normalised response (HCC1937 [5]) [%] | normalised response (MDA-MB-453 [6]) [%] | normalised response (BT-549 [7]) [%] | normalised response (BT-474 [8]) [%] | normalised response (MDA-MB-231 [9]) [%] | normalised response (CAL-85-1 [10]) [%] | normalised response (MFM-223 [11]) [%] | normalised response (SK-BR-3) [%] | normalised response (CAL-120 [12]) [%] | normalised response (CAL-51 [13]) [%] | normalised response (DU-4475 [14]) [%] | normalised response (HCC1599 [15]) [%] | normalised response (MDA-MB-436 [16]) [%] | normalised response (Hs578T [17]) [%] | normalised response (CAL-148 [18]) [%] | normalised response (HDQ-P1 [19]) [%] | normalised response (MDA-MB-468 [20]) [%] | normalised response (MCF-10A [21]) [%] | normalised response (HCC1143 [22]) [%] | normalised response (HCC1937 [23]) [%] | normalised response (MDA-MB-453 [24]) [%] | normalised response (BT-549 [25]) [%] | normalised response (BT-474 [26]) [%] | normalised response (MDA-MB-231 [27]) [%] | normalised response (CAL-85-1 [28]) [%] | normalised response (MFM-223 [29]) [%] | normalised response (CAL-120 [30]) [%] | normalised response (CAL-51 [31]) [%] | normalised response (DU-4475 [32]) [%] | normalised response (HCC1599 [33]) [%] | normalised response (MDA-MB-436 [34]) [%] | normalised response (Hs578T [35]) [%] | normalised response (CAL-148 [36]) [%] |
| --- | --- | --- | --- | --- | --- | --- | --- | --- | --- | --- | --- | --- | --- | --- | --- | --- | --- | --- | --- | --- | --- | --- | --- | --- | --- | --- | --- | --- | --- | --- | --- | --- | --- | --- | --- | --- | --- |
| O=[N+]([O-])c1ccc2c(c1)S(=O)(=O)C=C2 [Stattic] (50000 nM) | 0.11 | 0.18 | 0.13 | 0.27 | 0.16 | 0.25 | -0.12 | 0.34 | -0.2 | -0.24 | 0.11 | 0.32 | -0.12 | 0.17 | 0.04 | 0.17 | -0.02 | 0.3 | 0.45 | 27.2 | -81.1 | -24.7 | -42.8 | -18.2 | 17.2 | -34.2 | 8.89 | -17.4 | -51.7 | 30.1 | 27.8 | 34.1 | 82.3 | 65 | -15.2 | -12.9 | 25.6 |
| CN(Cc1cnc2nc(N)nc(N)c2n1)c1ccc(C(=O)N[C@@H](CCC(=O)O)C(=O)O)cc1 [Methotrexate] (50000 nM) | 53.7 | 100 | 105 | 84.4 | 31.5 | 96 | 92.2 | 23.6 | 29.1 | 49.6 | 101 | 72.5 | 21.7 | 68.2 | 92.3 | 52.4 | 77.1 | 19.5 | 107 | 112 | 77.6 | 103 | – | 106 | 65 | 103 | 93.8 | 92.3 | 64.1 | 103 | 102 | 114 | 99 | 101 | 42.9 | -70.6 | 105 |
| Cc1nc(C(=O)NCC(=O)O)c(O)c2ccc(Oc3ccccc3)cc12 [FG-4592] (10000 nM) | 92 | 110 | 107 | 98.5 | 100 | 97.4 | 92 | 94.5 | 96.1 | 101 | 103 | 101 | 102 | 97.7 | 97 | 92 | 98.8 | 109 | 113 | 114 | 125 | 111 | 118 | 72.6 | 95.2 | 94.7 | 98 | 95.7 | 78.6 | 104 | 107 | 105 | 97.7 | 99.9 | 93.9 | – | 89.3 |
| CN[C@@H](C)C(=O)N[C@H]1CN(C(=O)CC(C)C)CC[C@H]2CC[C@@H](C(=O)NC(c3ccccc3)c3ccccc3)N2C1=O [AT-406] (10000 nM) | 84.5 | 65.1 | 106 | 85.5 | 88 | 58.1 | 64.9 | 16.4 | 14.2 | 41.9 | 102 | 89.6 | 61.1 | 90.8 | 97.9 | 97.5 | 93.2 | 94.1 | 91.2 | – | 57.3 | 112 | 108 | 84.8 | 93.2 | 83.8 | 89.4 | -35.9 | 0.8 | 103 | 41.2 | 83 | 95.4 | 97.5 | 85.5 | 92.7 | 66.9 |
